Patent US8092974B2, “Production method of toner for developing electrostatic image” (Zeon Corporation, priority 2006, dated 2012)

Test: Average number of small diameter microparticles per colored resin particle (SEM count after polymerization)
Conditions: aqueous dispersion after polymerization process; SEM 5,000 magnification, 25 particles
Source text: The average number of small diameter microparticles per colored resin particle is a value calculated in such a manner that aqueous dispersion containing colored resin particles after polymerization process is collected and prepared to be a sample for measurement with a scanning electron microscopy (SEM); the prepared sample is photographed at 5,000 magnification in five fields of view by means of the scanning electron microscopy; five colored resin particles are randomly selected in each image; the number of small diameter microparticles observed on the surface of 25 colored resin particles in total is counted; and the average number of small microparticles per colored resin is calculated therefrom.
The number of small diameter microparticles per colored resin particle can be measured by means of a commercially available scanning electron microscopy. For example, it can be measured by means of a field emission scanning electron microscopy (product name: S-4700; manufactured by: Hitachi, Ltd.). […]
The sample was randomly photographed in five fields of view, and five colored resin particles were randomly selected in each image to count the number of small diameter microparticles observed on the surface of 25 colored resin particles in total. The average number of small diameter microparticles per colored resin particle was calculated therefrom.

In the case of `Oc1ccc(O)cc1` [A, Hydroquinone], the “Average number of small diameter microparticles per colored resin particle” value is reported as “weak”.
